Measurements taken from patent publication US8192962B2, “Processes for detecting toxic substances” (Daikin Industries, Ltd., priority 2001, dated 2012).

Test system: Metabolism protein genes
Assay: DNA chip mRNA expression in yeast, metabolism protein genes (Table 7)
Assay type: cell-based, Saccharomyces cerevisiae S288C
How it was run: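 Chemical exposure: 2 h, log-phase S. cerevisiae S288C, YPD, 25° C., dose set to inhibit growth without death. Profiling: mRNA labeled by reverse transcription with Cy3- or Cy5-dUTP, hybridized to whole-genome array. Output: fluorescence ratio against untreated culture.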

Compound: CCCCC[C@H](O)CC(=O)CCc1ccc(O)c(OC)c1 [(13), gingerol]
- The level of expressed mRNA in the presence of chemical substance/The level of expressed mRNA in the absence of chemical substance (yeast gene YJL099W): 2.4
- level of expressed mRNA in the presence/in the absence of chemical substance (yeast gene YJL121C): 0.7
- level of expressed mRNA in the presence/in the absence of chemical substance (yeast gene YJL167W): 0.9
- The level of expressed mRNA in the presence of chemical substance/The level of expressed mRNA in the absence of chemical substance (yeast gene YJL172W): 3.1
- level of expressed mRNA in the presence/in the absence of chemical substance (yeast gene YJL216C): 1.1
- level of expressed mRNA in the presence/in the absence of chemical substance (yeast gene YJR077C): 0.9
- The level of expressed mRNA in the presence of chemical substance/The level of expressed mRNA in the absence of chemical substance (yeast gene YJR137C): 2.1
- level of expressed mRNA in the presence/in the absence of chemical substance (yeast gene YJR143C): 0.3
- The level of expressed mRNA in the presence of chemical substance/The level of expressed mRNA in the absence of chemical substance (yeast gene YJR148W): 1.1
- The level of expressed mRNA in the presence of chemical substance/The level of expressed mRNA in the absence of chemical substance (yeast gene YJR155W): 5.7
- The level of expressed mRNA in the presence of chemical substance/The level of expressed mRNA in the absence of chemical substance (yeast gene YKL035W): 2.0
- level of expressed mRNA in the presence/in the absence of chemical substance (yeast gene YKL060C): 1.2
- The level of expressed mRNA in the presence of chemical substance/The level of expressed mRNA in the absence of chemical substance (yeast gene YKL091C): 2.0
- The level of expressed mRNA in the presence of chemical substance/The level of expressed mRNA in the absence of chemical substance (yeast gene YKL104C): 2.2
- level of expressed mRNA in the presence/in the absence of chemical substance (yeast gene YKL148C): 0.8
- The level of expressed mRNA in the presence of chemical substance/The level of expressed mRNA in the absence of chemical substance (yeast gene YKL152C): 2.7
- level of expressed mRNA in the presence/in the absence of chemical substance (yeast gene YKL157W): 2.3
- The level of expressed mRNA in the presence of chemical substance/The level of expressed mRNA in the absence of chemical substance (yeast gene YKL213C): 2.1
- The level of expressed mRNA in the presence of chemical substance/The level of expressed mRNA in the absence of chemical substance (yeast gene YKL215C): 2.6
- level of expressed mRNA in the presence/in the absence of chemical substance (yeast gene YKR034W): 1.2
- The level of expressed mRNA in the presence of chemical substance/The level of expressed mRNA in the absence of chemical substance (yeast gene YKR039W): 1.3
- The level of expressed mRNA in the presence of chemical substance/The level of expressed mRNA in the absence of chemical substance (yeast gene YLL058W): 2.3
- level of expressed mRNA in the presence/in the absence of chemical substance (yeast gene YLR006C): 0.8
- level of expressed mRNA in the presence/in the absence of chemical substance (yeast gene YLR044C): 1.7
- level of expressed mRNA in the presence/in the absence of chemical substance (yeast gene YLR056W): 0.2
- level of expressed mRNA in the presence/in the absence of chemical substance (yeast gene YLR058C): 0.3
- level of expressed mRNA in the presence/in the absence of chemical substance (yeast gene YLR081W): 0.6
- level of expressed mRNA in the presence/in the absence of chemical substance (yeast gene YLR089C): 1.0
- The level of expressed mRNA in the presence of chemical substance/The level of expressed mRNA in the absence of chemical substance (yeast gene YLR180W): 0.6
- The level of expressed mRNA in the presence of chemical substance/The level of expressed mRNA in the absence of chemical substance (yeast gene YLR273C): 1.7
- level of expressed mRNA in the presence/in the absence of chemical substance (yeast gene YLR284C): 0.8
- The level of expressed mRNA in the presence of chemical substance/The level of expressed mRNA in the absence of chemical substance (yeast gene YLR299W): 2.9
- level of expressed mRNA in the presence/in the absence of chemical substance (yeast gene YLR304C): 0.5
- The level of expressed mRNA in the presence of chemical substance/The level of expressed mRNA in the absence of chemical substance (yeast gene YLR307W): 1.0
- The level of expressed mRNA in the presence of chemical substance/The level of expressed mRNA in the absence of chemical substance (yeast gene YLR348C): 1.9
- level of expressed mRNA in the presence/in the absence of chemical substance (yeast gene YLR354C): 1.0
- level of expressed mRNA in the presence/in the absence of chemical substance (yeast gene YLR372W): 0.1
- level of expressed mRNA in the presence/in the absence of chemical substance (yeast gene YML022W): 0.2
- level of expressed mRNA in the presence/in the absence of chemical substance (yeast gene YMR011W): 0.4
- level of expressed mRNA in the presence/in the absence of chemical substance (yeast gene YMR015C): 0.4
- level of expressed mRNA in the presence/in the absence of chemical substance (yeast gene YMR083W): 0.9
- The level of expressed mRNA in the presence of chemical substance/The level of expressed mRNA in the absence of chemical substance (yeast gene YMR189W): 0.9
- level of expressed mRNA in the presence/in the absence of chemical substance (yeast gene YMR205C): 1.3
- level of expressed mRNA in the presence/in the absence of chemical substance (yeast gene YMR261C): 1.6
- The level of expressed mRNA in the presence of chemical substance/The level of expressed mRNA in the absence of chemical substance (yeast gene YMR296C): 0.9
- level of expressed mRNA in the presence/in the absence of chemical substance (yeast gene YMR323W): 1.8
- The level of expressed mRNA in the presence of chemical substance/The level of expressed mRNA in the absence of chemical substance (yeast gene YNL012W): 2.9
- level of expressed mRNA in the presence/in the absence of chemical substance (yeast gene YNL025C): 1.3
- The level of expressed mRNA in the presence of chemical substance/The level of expressed mRNA in the absence of chemical substance (yeast gene YNL037C): 1.9
- The level of expressed mRNA in the presence of chemical substance/The level of expressed mRNA in the absence of chemical substance (yeast gene YNL045W): 2.6
- The level of expressed mRNA in the presence of chemical substance/The level of expressed mRNA in the absence of chemical substance (yeast gene YNL104C): 2.1
- The level of expressed mRNA in the presence of chemical substance/The level of expressed mRNA in the absence of chemical substance (yeast gene YNL106C): 0.9
- The level of expressed mRNA in the presence of chemical substance/The level of expressed mRNA in the absence of chemical substance (yeast gene YNL169C): 1.7
- level of expressed mRNA in the presence/in the absence of chemical substance (yeast gene YNL192W): 2.7
- The level of expressed mRNA in the presence of chemical substance/The level of expressed mRNA in the absence of chemical substance (yeast gene YNL322C): 0.8
- The level of expressed mRNA in the presence of chemical substance/The level of expressed mRNA in the absence of chemical substance (yeast gene YNL331C): 3.1
- The level of expressed mRNA in the presence of chemical substance/The level of expressed mRNA in the absence of chemical substance (yeast gene YNL332W): 2.1
- The level of expressed mRNA in the presence of chemical substance/The level of expressed mRNA in the absence of chemical substance (yeast gene YNR002C): 2.1
- The level of expressed mRNA in the presence of chemical substance/The level of expressed mRNA in the absence of chemical substance (yeast gene YNR019W): 2.1
- The level of expressed mRNA in the presence of chemical substance/The level of expressed mRNA in the absence of chemical substance (yeast gene YNR059W): 2.4
- The level of expressed mRNA in the presence of chemical substance/The level of expressed mRNA in the absence of chemical substance (yeast gene YOL058W): 1.2
- level of expressed mRNA in the presence/in the absence of chemical substance (yeast gene YOL086C): 1.7
- level of expressed mRNA in the presence/in the absence of chemical substance (yeast gene YOL108C): 1.3
- level of expressed mRNA in the presence/in the absence of chemical substance (yeast gene YOL116W): 0.8
- The level of expressed mRNA in the presence of chemical substance/The level of expressed mRNA in the absence of chemical substance (yeast gene YOL143C): 1.2
- level of expressed mRNA in the presence/in the absence of chemical substance (yeast gene YOL156W): 1.7
- The level of expressed mRNA in the presence of chemical substance/The level of expressed mRNA in the absence of chemical substance (yeast gene YOL165C): 3.7
- level of expressed mRNA in the presence/in the absence of chemical substance (yeast gene YOR002W): 0.6
- level of expressed mRNA in the presence/in the absence of chemical substance (yeast gene YOR085W): 1.0
- The level of expressed mRNA in the presence of chemical substance/The level of expressed mRNA in the absence of chemical substance (yeast gene YOR099W): 1.6
- level of expressed mRNA in the presence/in the absence of chemical substance (yeast gene YOR103C): 0.8
- level of expressed mRNA in the presence/in the absence of chemical substance (yeast gene YOR108W): 1.3
- level of expressed mRNA in the presence/in the absence of chemical substance (yeast gene YOR128C): 0.4
- The level of expressed mRNA in the presence of chemical substance/The level of expressed mRNA in the absence of chemical substance (yeast gene YOR130C): 2.1
- The level of expressed mRNA in the presence of chemical substance/The level of expressed mRNA in the absence of chemical substance (yeast gene YOR136W): 1.5
- level of expressed mRNA in the presence/in the absence of chemical substance (yeast gene YOR142W): 1.4
- level of expressed mRNA in the presence/in the absence of chemical substance (yeast gene YOR176W): 1.5
- level of expressed mRNA in the presence/in the absence of chemical substance (yeast gene YOR178C): 1.0
- level of expressed mRNA in the presence/in the absence of chemical substance (yeast gene YOR251C): 1.0
- The level of expressed mRNA in the presence of chemical substance/The level of expressed mRNA in the absence of chemical substance (yeast gene YOR336W): 2.1
- The level of expressed mRNA in the presence of chemical substance/The level of expressed mRNA in the absence of chemical substance (yeast gene YOR347C): 1.8
- level of expressed mRNA in the presence/in the absence of chemical substance (yeast gene YOR348C): 1.1
- The level of expressed mRNA in the presence of chemical substance/The level of expressed mRNA in the absence of chemical substance (yeast gene YPL017C): 1.9
- level of expressed mRNA in the presence/in the absence of chemical substance (yeast gene YPL028W): 0.9
- level of expressed mRNA in the presence/in the absence of chemical substance (yeast gene YPL057C): 1.3
- level of expressed mRNA in the presence/in the absence of chemical substance (yeast gene YPL135W): 1.2
- level of expressed mRNA in the presence/in the absence of chemical substance (yeast gene YPL148C): 0.6
- level of expressed mRNA in the presence/in the absence of chemical substance (yeast gene YPR113W): 0.7
- level of expressed mRNA in the presence/in the absence of chemical substance (yeast gene YPR165W): 1.0
- The level of expressed mRNA in the presence of chemical substance/The level of expressed mRNA in the absence of chemical substance (yeast gene YPR167C): 1.9
- level of expressed mRNA in the presence/in the absence of chemical substance (yeast gene YPR183W): 1.6
